In patent US20070054848A1, “Composition and method for nerve regeneration” (priority 2003, published 2007):

How the values were obtained:
[1] = molecular target: T1, Recombinant human p75-Fc chimera (Homo sapiens, UniProt P08138); assay: Co-precipitation of recombinant p75 and gangliosides; format: binding; conditions: precipitation with protein A sepharose, Western blot
T1 construct: Recombinant p75 extracellular domain fused to Fc purified from Sf21 cells; purchased Genzyme-Techne; host or cells: Sf21 cells
T1 sequence (P08138 29-250 limits assumed): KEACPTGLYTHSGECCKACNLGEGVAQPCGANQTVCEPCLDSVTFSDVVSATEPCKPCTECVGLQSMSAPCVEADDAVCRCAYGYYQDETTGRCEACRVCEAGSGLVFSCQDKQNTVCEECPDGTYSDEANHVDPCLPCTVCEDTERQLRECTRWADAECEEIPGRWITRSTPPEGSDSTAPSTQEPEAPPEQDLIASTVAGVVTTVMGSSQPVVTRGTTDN
Description: Recombinant human p75-Fc chimera (1 μg; Genzyme-Techne) and 1 μg of purified ganglioside GT1b (>98% purity, Seikagaku Co.) were incubated in 200 μl 0.025% Tween20/PBS for 2 h, and p75 was precipitated using proteinA sepharose (Amersham Pharmacia Biotech). The resultant precipitates were electrophoretically transferred to polyvinylidene difluoride membranes after SDS-PAGE with 7% gels and were immunoblotted with anti GT1b antibody (IgM, Seikagaku Co.) or anti p75 antibody.

[2] = system: N1E-115 cells; assay: Morphological analysis of N1E-115 cells; format: cell-based; conditions: for neurite formation / population with long neurites: Y-27632 10 μM for 30 minutes, constructs 48 hours after transfection
Description: N1E-115 cells were transfected with GFP, GFP-full-p21 or GFP-ΔNLS-p21, and cultured in serum-starved condition for 5 hours. Then, the medium was replaced with DMEM containing 10% fetal bovine serum. The cells were fixed at 48 hours after transfection. The morphology of the cells was categorized into 3 groups; neurite positive cells, round cells and the other cells. The cells with longer neurites than their soma were defined as neurite positive cells. The other cells had various features including microspikes, ruffles and a flattened appearance.

[3] = system: NIH3T3 cells; assay: Stress fiber formation assay in NIH3T3 cells; format: cell-based; conditions: serum-starved 16 hours, 10% serum 10 minutes
Description: (§1) NIH3T3 cells, N1E-115 cells and 293T cells were maintained in DMEM containing 10% fetal bovine serum. Lipofectamine 2000 (Invitrogen) was used for transfection. For the stress fiber formation assay, NIH3T3 cells were cultured in serum-free medium for 16 hours after transfection. Stress fiber formation was evoked by incubating the cells with 10% serum for 10 minutes. Hippocampal neurons were prepared from 18-day-old Sprague-Dawley rats, as previously described (Neumann, H. et al., Science. 269:549-552, 1995). Briefly, hippocampi were dissected and the meninges removed. The trimmed tissue was dissociated by trituration. The dissociated cells were plated on dishes pre-coated with poly-L-lysine (Sigma), and cultured in DMEM containing 10% fetal bovine serum for 24 hours. Then, the medium was replaced with DMEM with B27 supplement (Invitrogen), and the cells were transfected with GFP or GFP-ΔNLS-p21. Neuronal morphology was estimated at 24 hours after the transfection.

[4] = molecular target: T2, Rho-kinase (Bos taurus, UniProt Q28021); assay: Rho-kinase kinase assay with lysates of transfected 293T cells; format: cell-based; conditions: 293T cells transfected with myc-Rho-kinase; Y-27632 10 μM for 30 minutes
Description: Cells were lysed with lysis buffer (50 mM Tris-HCl (pH 7.5), 150 mM NaCl, 10% glycerol, 1% Nonidet-P40 and protease inhibitor cocktail). The kinase assay was carried out using the lysates.

[5] = system: N1E-115 cells; assay: Growth and differentiation of N1E-115 cells; format: cell-based; conditions: for proliferation of N1E-115 cells: until 48 hours after transfection
Description: Cells were seeded in 6-cm dishes, transfected, and were counted 1 and 2 days after transfection. The relative increases in the number of the cells are shown. The values are means±SEM of 3 independent experiments. *, p<0.01 compared with full-p21 (Student's t-test). There is no significant difference between GFP and GFP-ΔNLS-p21 transfected cells. […] N1E-115 cells were treated with DMSO, or transfected with GFP-full-p21 or GFP-ΔNLS-p21, then were harvested at 1, 2, 3 and 4 days. Arrowheads indicate hyperphosphorylated pRb, and the arrow indicates underphosphorylated pRb. […] Shown are photomicrographs of the cells transfected with each construct. […] N1E-115 cells exposed to Y-27632 (10 μM) for 30 minutes or expressing GFP, GFP-full-p21 or GFP-ΔNLS-p21 were categorized into 3 groups; the cells with long neurites (long neurite), cells with a round form (round), and cells with other forms (others). Data represent means±SEM of 3 independent experiments. *, p<0.05 compared with control. **, p<0.01 compared with control as well as full-p21 (Student's t-test).
as §1

[6] = molecular target: T2, Rho-kinase; assay: Co-immunoprecipitation of p21 constructs and Rho-kinase in 293T cells; format: cell-based; conditions: anti-p21 antibody
Description: 293T cells were transfected with myc-Rho-kinase in combination with GFP-full-p21 or GFP-ΔNLS-p21. At 48 hours after transfection, the cells were lysed with 1 ml of lysis buffer (50 mM Tris-HCl (pH 7.5), 150 mM NaCl, 10% glycerol, 0.5% Nonidet-P40 including protease inhibitor cocktail tablets (Roche). The cell lysates were centrifuged at 13,000×g for 20 minutes, and the supernatant was collected. Immunoprecipitations were performed for 2 hours at 4° C. using an anti-p21 mouse monoclonal antibody (Santa Cruz Biotechnology) and 0.75 ml of the supernatant. The immunocomplexes were collected with protein G-Sepharose (Amersham Pharmacia Biotech) slurry (50% v/v), washed 4 times with lysis buffer, and subjected to SDS-PAGE. They were transferred to the polyvinylidene difluoride membranes and probed with the anti-myc rabbit polyclonal antibody (Santa Cruz Biotechnology). Interaction of endogenous proteins in N1E-115 cells was assessed in the same way using anti Rho-kinase antibody.

[7] = system: hippocampal neurons; assay: Neurite outgrowth and branching of hippocampal neurons; format: cell-based; conditions: rat E18 hippocampal neurons, 24 hours after transfection
Description: as §1
Cultures of the hippocampal neurons from rat E18 embryos were used. […] Twenty-four hours after transfection, the cells were fixed and immunolabeled with β-tubulin III. The total neurite length per neuron, the axonal length, defined as the length of the longest neurite per neuron, the number of primary processes originating from the neuronal somata, and the number of branch points per neuron were determined (Neumann, H. et al., J. Neurosci. 22:854-862, 2002).

[8] = molecular target: catalytic domain of Rho-kinase (GST-CAT) (Bos taurus, UniProt Q28021); assay: In vitro binding assay of p21 and Rho-kinase (GST-CAT); conditions: co-incubated at the indicated concentrations
[9] = system: cerebellar neurons; assay: Neurite outgrowth assay, post-natal cerebellar neurons; format: cell-based, mice; conditions: cerebellar neurons transfected with myc-tagged Rho GDI
[10] = molecular target: T3, p75 (Homo sapiens, UniProt P08138); assay: Co-precipitation of p75 and Rho GDI with purified recombinant proteins; format: binding; conditions: p75 precipitated from transfected 293T cells; purified recombinant proteins
T3 construct: host or cells: 293T cells (p75)
T3 sequence (P08138 29-427): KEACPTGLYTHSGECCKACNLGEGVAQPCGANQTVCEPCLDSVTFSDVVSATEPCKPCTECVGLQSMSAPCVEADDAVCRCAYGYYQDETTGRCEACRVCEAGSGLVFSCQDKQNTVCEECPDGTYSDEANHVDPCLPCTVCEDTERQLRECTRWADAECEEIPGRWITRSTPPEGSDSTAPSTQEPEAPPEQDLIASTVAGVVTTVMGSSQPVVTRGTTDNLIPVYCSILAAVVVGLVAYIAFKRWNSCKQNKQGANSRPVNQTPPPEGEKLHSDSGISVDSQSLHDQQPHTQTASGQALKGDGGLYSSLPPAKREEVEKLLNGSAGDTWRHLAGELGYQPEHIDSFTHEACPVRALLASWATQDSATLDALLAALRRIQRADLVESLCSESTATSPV

[11] = system: cerebellar granule neurons from P7 rats; assay: Neurite outgrowth assay, cerebellar neurons; format: cell-based, rat; conditions: cerebellar granule neurons; data not shown

T2 sequence (Q28021 whole entry): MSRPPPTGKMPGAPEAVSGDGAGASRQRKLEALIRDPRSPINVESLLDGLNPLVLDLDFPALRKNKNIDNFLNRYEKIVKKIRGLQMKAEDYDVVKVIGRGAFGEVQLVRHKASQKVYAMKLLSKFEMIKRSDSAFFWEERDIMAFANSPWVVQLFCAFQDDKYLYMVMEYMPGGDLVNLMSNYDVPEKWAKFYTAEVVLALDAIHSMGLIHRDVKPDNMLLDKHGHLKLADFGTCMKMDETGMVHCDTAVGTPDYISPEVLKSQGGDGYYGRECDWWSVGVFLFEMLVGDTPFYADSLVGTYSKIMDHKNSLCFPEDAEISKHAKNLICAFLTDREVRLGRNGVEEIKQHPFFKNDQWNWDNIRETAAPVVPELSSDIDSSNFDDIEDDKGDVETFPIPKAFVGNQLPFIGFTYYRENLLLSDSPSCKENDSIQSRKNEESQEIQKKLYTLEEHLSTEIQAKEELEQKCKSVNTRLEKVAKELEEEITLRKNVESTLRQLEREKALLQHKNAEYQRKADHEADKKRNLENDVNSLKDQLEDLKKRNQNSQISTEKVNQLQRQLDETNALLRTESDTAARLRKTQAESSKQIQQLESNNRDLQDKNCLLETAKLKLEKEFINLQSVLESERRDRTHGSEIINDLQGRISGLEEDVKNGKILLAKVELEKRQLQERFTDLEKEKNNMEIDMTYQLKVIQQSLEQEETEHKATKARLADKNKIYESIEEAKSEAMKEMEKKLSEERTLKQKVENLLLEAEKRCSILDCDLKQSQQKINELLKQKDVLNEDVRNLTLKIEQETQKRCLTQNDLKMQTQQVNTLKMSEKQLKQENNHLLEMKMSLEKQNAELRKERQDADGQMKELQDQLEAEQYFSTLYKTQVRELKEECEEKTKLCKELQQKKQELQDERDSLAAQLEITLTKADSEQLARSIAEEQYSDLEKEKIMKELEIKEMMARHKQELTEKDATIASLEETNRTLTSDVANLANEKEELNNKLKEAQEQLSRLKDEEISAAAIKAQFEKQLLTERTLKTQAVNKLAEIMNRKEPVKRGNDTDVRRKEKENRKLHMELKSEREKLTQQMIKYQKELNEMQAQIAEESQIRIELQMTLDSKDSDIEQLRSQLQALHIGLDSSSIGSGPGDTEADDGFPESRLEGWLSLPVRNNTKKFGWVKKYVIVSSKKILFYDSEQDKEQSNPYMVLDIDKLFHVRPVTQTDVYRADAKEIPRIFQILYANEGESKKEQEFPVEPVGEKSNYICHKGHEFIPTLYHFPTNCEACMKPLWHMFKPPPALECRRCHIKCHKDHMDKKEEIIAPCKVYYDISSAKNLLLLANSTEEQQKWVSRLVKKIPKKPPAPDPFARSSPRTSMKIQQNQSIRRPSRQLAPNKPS
Sequence of catalytic domain of Rho-kinase (GST-CAT) (Q28021 6-553 limits assumed): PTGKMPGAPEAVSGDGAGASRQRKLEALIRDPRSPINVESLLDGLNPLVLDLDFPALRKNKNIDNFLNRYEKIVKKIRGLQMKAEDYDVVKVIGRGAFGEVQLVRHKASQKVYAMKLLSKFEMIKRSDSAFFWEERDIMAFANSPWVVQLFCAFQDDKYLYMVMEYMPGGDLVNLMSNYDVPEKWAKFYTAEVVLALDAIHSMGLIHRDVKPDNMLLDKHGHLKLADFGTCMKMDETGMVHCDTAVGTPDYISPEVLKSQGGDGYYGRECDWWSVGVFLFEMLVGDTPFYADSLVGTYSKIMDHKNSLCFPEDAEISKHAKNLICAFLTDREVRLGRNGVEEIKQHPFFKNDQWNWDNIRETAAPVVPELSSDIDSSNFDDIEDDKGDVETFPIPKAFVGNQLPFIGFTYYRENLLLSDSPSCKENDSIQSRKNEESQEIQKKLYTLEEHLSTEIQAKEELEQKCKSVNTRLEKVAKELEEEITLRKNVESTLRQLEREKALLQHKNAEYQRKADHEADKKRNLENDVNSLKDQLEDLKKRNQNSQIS

## GD1a
[1]
  association with recombinant p75 extracellular domain fused to Fc: did not see any interaction

## full-length p21: pEGFP-full-p21 (aa 1-164), mammalian expression vector for GFP fused protein
[2]
  neurite formation / population with long neurites: no increase in the cell population that had long neurites
[3]
  actin stress fiber formation after the addition of serum: Extensive actin stress fibers were observed
[4]
  Rho-kinase activity (compared to the original): no significant effect
[5]
  proliferation of N1E-115 cells: stopped proliferation
[6]
  co-immunoprecipitation of myc-tagged Rho-kinase: only a faint signal could be detected

## GT1b
[1]
  association with recombinant p75 extracellular domain fused to Fc: binds to p75 in a manner that is SDS-resistant

## ΔNLS-p21: p21 with loss of nuclear localization signal (aa 1-140), expressed as GFP fused protein
[2]; 48 hours after transfection
  cells that extended long neurites: more than 45%
  increase of cells with long neurites compared to the control: 3.1 fold
[7]
  number of primary processes: no change in the number of primary processes
[7]; control 1.3
  number of branch points per neuron: 2.6
[7]; control 66.3
  axonal length (length of the longest neurite per neuron): 162.9 μm
[7]; control 135.9
  total neurite length per neuron: 307.2 μm
[3]
  actin stress fiber formation after the addition of serum: little stress fiber formation
[4]
  Rho-kinase activity (compared to the original): 48.1%
[5]; cyclin D3 and pRb Western blot
  differentiation inducing activity: has no differentiation inducing activity
[5]
  proliferation of N1E-115 cells: proliferated until 48 hours after transfection
[6]
  co-immunoprecipitation of myc-tagged Rho-kinase: efficiently precipitated myc-tagged Rho-kinase

## AKRRRLSSLRA [S6 kinase substrate peptide]
[8]
  interaction of p21 with Rho-kinase: inhibited the interaction of p21 with Rho-kinase in a dose dependent manner

## Rho GDI: Rho GDP dissociation inhibitor; recombinant protein or myc-tagged Rho GDI plasmid over-expression
[9]
  effect of over-expression on inhibition of neurite outgrowth by MAG and the Nogo peptide: abolished these inhibitory effects
[10]
  direct physical interaction with p75: bound to p75

## RhoA: bacterially produced RhoA, GDP-bound, GTP-bound or nucleotide-depleted
[10]
  direct physical interaction with p75: no interaction between them in any nucleotide state

## C[C@@H](N)[C@H]1CC[C@H](C(=O)Nc2ccncc2)CC1 [Y-27632, reference compound]
[2]
  neurite formation / population with long neurites: induced significant neurite formation
[8]
  interaction of p21 with Rho-kinase: inhibited the interaction of p21 with Rho-kinase in a dose dependent manner
[4]
  Rho-kinase activity (compared to the original): 51.9%

## Cn1c2ccccc2c2c3c(c4c5ccccc5n(CCC#N)c4c21)CNC3=O [G06976]
[11]
  neurite outgrowth response to MAG-Fc or Nogo peptide with another PKC inhibitor: Same results were obtained
